Like-named read-outs stand apart in the source and are kept apart here.
Tested on: cultured human mast cells (CHMC)
Assay: CHMC low cell density IgE activation: tryptase assay
Assay type: cell-based
Settings: IgE activation
Method in brief: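 Low-density CHMC, 1000-1500 cells/well in MT; 1 hr 37 °C; anti-IgE challenge 30 min 37 °C; supernatant tryptase via fluorogenic substrate, 30 min RT.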

[1] = low cell density CHMC, tryptase, 3 pt, read-out: LD Tryptase, CHMC, IgE, 3 pt
[2] = low cell density CHMC, tryptase, 8 pt, read-out: LD Tryptase, CHMC, IgE, 8 pt
[3] = Homo sapiens, Mast cell, low cell density CHMC, tryptase, 3 pt, read-out: LD Tryptase, CHMC, IgE, 3 pt
[4] = Homo sapiens, Mast cell, low cell density CHMC, tryptase, 8 pt, read-out: LD Tryptase, CHMC, IgE, 8 pt
[5] = low cell density CHMC, tryptase release, 8 pt, read-out: LD Tryptase, CHMC, IgE, 8 pt

Compound | IC50 [1] [µM] | IC50 [2] [µM] | further results
Cc1cc(C)cc(Nc2ncc(F)c(NCC3COc4ccccc4O3)n2)c1 (stereo not shown) [Compound 1256, N4-[ (2,3-Dihydro-1,4-benzodioxan-2-yl)methyl]-N2-(3,5-dimethylphenyl)-5-fluoro-2,4-pyrimidinediamine] | < 10 | – | –
CNC(=O)COc1cccc(Nc2ncc(F)c(NCC3COc4ccccc4O3)n2)c1 (stereo not shown) [Compound 1257, N4-[ (2,3-Dihydro-1,4-benzodioxan-2-yl)methyl]-5-fluoro-N2-[3-(N-methylamino)carbonylmethyleneoxyphenyl]-2,4-pyrimidinediamine] | – | < 10 | –
COc1cc(Nc2ncc(F)c(NCC3COc4ccccc4O3)n2)cc(OC)c1 (stereo not shown) [Compound 1258, N4-[ (2,3-Dihydro-1,4-benzodioxan-2-yl)methyl]-N2-(3,5-dimethoxyphenyl)-5-fluoro-2,4-pyrimidinediamine] | < 10 | – | –
COc1ccc(Nc2ncc(F)c(NCC3COc4ccccc4O3)n2)cc1Cl (stereo not shown) [Compound 1259, N2-(3-Chloro-4-methoxyphenyl)-N4-[ (2,3-dihydro-1,4-benzodioxan-2-yl)methyl]-5-fluoro-2,4-pyrimidinediamine] | < 10 | – | –
Fc1cnc(Nc2ccc3cn[nH]c3c2)nc1NCC1COc2ccccc2O1 (stereo not shown) [Compound 1260, N4-[ (2,3-Dihydro-1,4-benzodioxan-2-yl)methyl]-5-fluoro-N2-(indazol-6-yl)-2,4-pyrimidinediamine] | – | < 10 | –
COC(=O)c1ccc(Nc2ncc(F)c(Nc3ccc(Cl)c(Cl)c3)n2)cc1 [Compound 1261] | – | – | IC50 [3]: > 10 µM
COC(=O)c1ccc(Nc2ncc(F)c(Nc3ccc4c(c3)NC(=O)[C@H](C)O4)n2)cc1 [Compound 1263] | – | – | IC50 [4]: < 10 µM
C[C@H]1Oc2ccc(Nc3nc(Nc4ccc(C(N)=O)cc4)ncc3F)cc2NC1=O [Compound 1265] | – | – | IC50 [4]: < 10 µM
COC(=O)c1ccc(Nc2ncc(F)c(Nc3ccc4c(c3)NC(=O)[C@@H](C)O4)n2)cc1 [Compound 1266] | – | – | IC50 [4]: < 10 µM
C[C@H]1Oc2ccc(Nc3nc(Nc4cccc(CN)c4)ncc3F)cc2NC1=O [Compound 1280] | < 10 | < 10 | –
COC(=O)CCNC(=O)c1ccc(Nc2ncc(F)c(Nc3ccc4c(n3)NC(=O)C(C)(C)O4)n2)cc1 [Compound 1312, N4-(2,2-Dimethyl-3-oxo-4H-5-pyrid[1,4]oxazin-6-yl)-5-fluoro-N2-[4-[N-(2-methoxycarbonylethyl)aminocarbonyl]phenyl]-2,4-pyrimidinediamine] | – | – | IC50 [3]: < 10 µM
COC(=O)c1ccc(Nc2ncc(F)c(Nc3ccc(OC)c(Cl)c3)n2)cc1 [Compound 1322] | – | – | IC50 [4]: < 10 µM
CNC(=O)CNC(=O)c1ccc(Nc2ncc(F)c(Nc3ccc(OC)c(Cl)c3)n2)cc1 [Compound 1325] | – | < 10 | –
NC(=O)c1ccc(Nc2nc(Cl)ncc2F)cc1 [Compound 1327] | – | – | IC50 [4]: > 10 µM
NC(=O)c1ccc(Nc2nc(Nc3cccc(O)c3)ncc2F)cc1 [Compound 1334] | – | – | IC50 [3]: < 10 µM; IC50 [4]: < 10 µM
NC(=O)c1ccc(Nc2nc(Nc3cc(Cl)c(O)c(Cl)c3)ncc2F)cc1 [Compound 1335] | – | – | IC50 [3]: < 10 µM; IC50 [4]: < 10 µM
COc1ccc(Nc2ncc(F)c(Nc3ccc(C(N)=O)cc3)n2)cc1Cl [Compound 1336] | – | – | IC50 [3]: < 10 µM; IC50 [4]: < 10 µM
NC(=O)c1ccc(Nc2ncc(F)c(Nc3ccc(C(N)=O)cc3)n2)cc1 [Compound 1339] | – | – | IC50 [3]: > 10 µM; IC50 [4]: > 10 µM
COC(=O)CNC(=O)c1ccc(Nc2ncc(F)c(Nc3ccc(OCc4nc(C)no4)cc3)n2)cc1 [Compound 1342, 5-Fluoro-N2-(4-[N-[methoxycarbonylmethylene]aminocarbonyl]phenyl)-N4-(4-[3-methyl-1,2,4-oxadiazol-5-yl]methyleneoxyphenyl)-2,4-pyrimidinediamine] | < 10 | < 10 | –
CN(c1ccc(Cl)c(Cl)c1)c1nc(Nc2ccc(C(N)=O)cc2)ncc1F [Compound 1346] | – | – | IC50 [3]: < 10 µM
CCN(CC)CCNC(=O)c1ccc(Nc2ncc(F)c(N(C)c3ccc(Cl)c(Cl)c3)n2)cc1 [Compound 1347, N2-(4-[2-[N,N-Diethylamino]ethyleneaminocarbonyl]phenyl)-N4-(3,4-dichlorophenyl)-5-fluoro-N4-methyl-2,4-pyrimidinediamine] | < 10 | – | –
NC(=O)c1ccc(Nc2ncc(F)c(NC3CCCC3)n2)cc1 [Compound 1349] | – | – | IC50 [3]: > 10 µM

Compound | IC50 [1] [µM] | IC50 [2] [µM] | further results
CCN(CC)CCNC(=O)c1ccc(Nc2ncc(F)c(NC3CCCC3)n2)cc1 [Compound 1350, N4-(Cyclopentyl)-N2-(4-[2-(N,N-diethylamino]ethyleneaminocarbonyl)phenyl)-5-fluoro-2,4-pyrimidinediamine] | > 10 | < 10 | –
COc1cc(Nc2nc(Nc3ccc(C(N)=O)cc3)ncc2F)ccc1Cl [Compound 1352] | – | – | IC50 [3]: < 10 µM
COc1ccc(Nc2nc(Nc3ccc(C(N)=O)c(Cl)c3)ncc2F)cc1Cl [Compound 1353] | – | – | IC50 [3]: < 10 µM; IC50 [4]: < 10 µM
COc1cc(Nc2nc(Nc3ccc(C(N)=O)c(Cl)c3)ncc2F)ccc1Cl [Compound 1354] | – | – | IC50 [3]: < 10 µM; IC50 [4]: < 10 µM
CCN(CC)CCNC(=O)c1ccc(Nc2ncc(F)c(Nc3ccc(Cl)c(OC)c3)n2)cc1 [Compound 1355, N4-(4-Chloro-3-methoxyphenyl)-N2-(4-[2-[N,N-diethylamino]ethyleneaminocarbonyl]phenyl)-5-fluoro-2,4-pyrimidinediamine] | < 10 | < 10 | –
NC(=O)c1ccc(Nc2ncc(F)c(Nc3ccccc3)n2)cc1 [Compound 1357, N2-(4-Aminocarbonylphenyl)-5-fluoro-N4-phenyl-2,4-pyrimidinediamine] | – | – | IC50 [3]: < 10 µM; IC50 [4]: < 10 µM
(R)-N2- (3-Chloro-4-methoxyphenyl)-5-fluoro-N4- (2-methyl-3-oxo-2H,4H-benz[1,4]oxazin-6-yl)-2,4-pyrimidinediamine (1R)-(−)-Camphorsulfonic Acid Salt [Compound 212] | – | – | IC50 (low cell density CHMC, tryptase release, 3 pt, read-out: LD Tryptase, CHMC, IgE, 3 pt): < 10 µM; IC50 [5]: < 10 µM
(R)-N2- (3-Chloro-4-methoxyphenyl)-5-fluoro-N4- (2-methyl-3-oxo-2H,4H-benz[1,4]oxazin-6-yl)-2,4-pyrimidinediamine (1S)-(+)-Camphorsulfonic Acid Salt [Compound 209] | – | – | IC50 [5]: < 10 µM
(R)-N2-[3- (N-tert-Butoxycarbonylamino)methylenephenyl]-5-fluoro-N4- (2-methyl-3-oxo-2H,4H-benz[1,4]oxazin-6-yl) [Compound 1277] | < 10 | < 10 | –
(R,S)-N2- (3,5-Dimethylphenyl)-5-fluoro-N4-(tetrahydrofurano[2,3]-2H-benz[1,4]oxazin-6-yl)-2,4-pyrimidinediamine [Compound 252] | – | – | IC50 [5]: < 10 µM
(S)-5-Fluoro-[1- (2-hydroxymethyl)-2-trifluoromethylbenzimidazol-5-yl]-N4- (2-methyl-3-oxo-2H,4H-benz[1,4]oxazin-6-yl)-2,4-pyrimidinediamine [Compound 923] | – | – | IC50 (low cell density, 8 pt, read-out: LD Tryptase, CHMC, IgE, 8 pt): < 10 µM
(S)-N2-[3- (N-tert-Butoxycarbonylamino)methylenephenyl]-5-fluoro-N4- (2-methyl-3-oxo-2H,4H-benz[1,4]oxazin-6-yl)-2,4-pyrimidinediamine [Compound 1276] | < 10 | < 10 | –
N2- (2,2-Dimethyl-3-oxo-4H-benz[1,4]oxazin-6-yl)-5-fluoro-N4-(4-[N-[methoxycarbonylmethylene]aminocarbonyl]phenyl)-2,4-pyrimidinediamine [Compound 1331] | < 10 | < 10 | –
N2- (2-Aminocarbonylphenyl)-N4- (2,2-dimethyl-3-oxo-4H-5-pyrid[1,4]oxazin-6-yl)-5-fluoro-2,4-pyrimidinediamine [Compound 1316] | < 10 | > 10 | –
N2- (3,5-Dichloro-4-hydroxyphenyl)-5-fluoro-N4- (4-[N-[methoxycarbonylmethylene]aminocarbonyl]phenyl)-2,4-pyrimidinediamine [Compound 1329] | – | < 10 | –
N2- (3-Chloro-4-hydroxy-5-methylphenyl)-N4-[3,4-(difluoromethylenedioxy)phenyl]-5-fluoro-2,4-pyrimidinediamine [Compound 567] | – | – | IC50 (low cell density CHMC, tryptase release, 8 point, read-out: LD Tryptase, CHMC, IgE, 8 pt): < 10 µM
N2- (4-Aminocarbonylphenyl)-5-fluoro-N4- (4-[N-[methoxycarbonylmethylene]aminocarbonyl]phenyl)-2,4-pyrimidinediamine [Compound 1333] | > 10 | > 10 | –
N2- (4-Aminocarbonylphenyl)-N4- (2,2-dimethyl-3-oxo-4H-5-pyrid[1,4]oxazin-6-yl)-5-fluoro-2,4-pyrimidinediamine [Compound 1315] | < 10 | – | –
N2-[3,5-Bis (hydroxymethylene)phenyl]-N4- (3,4-dichlorophenyl)-5-fluoro-2,4-pyrimidinediamine [Compound 346] | – | < 10 | –
N2-[3,5-Bis (hydroxymethylene)phenyl]-N4- (3,4-ethylenedioxyphenyl)-5-fluoro-2,4-pyrimidinediamine [Compound 342] | – | < 10 | –
N2-[3,5-Bis (hydroxymethylene)phenyl]-N4- (3-chloro-4-methoxyphenyl)-5-fluoro-2,4-pyrimidinediamine [Compound 345] | – | < 10 | –
N4- (2,2-Dimethyl-3-oxo-4H-5-pyrid[1,4]oxazin-6-yl)-5-fluoro-N2- (3-methoxycarbonylppyrid-2yl)-2,4-pyrimidinediamine [Compound 1314] | < 10 | – | –
